The results in this text go back to US11433028B2, “Compositions for treating viral infections and methods for same” (Tiger Development, LLC, priority 2018, dated 2022).

In test [1] the test system is SARS-CoV-2. The class given is in vivo, mice.
The subject of test [2] is SARS-CoV-2. Set-up: species or system mice. The settings on record: mouse, in vivo.

Take polylysine: in test [1] (mouse, in vivo), the “increase in total survival across the treatment period” value is on record as 5 fold; the “mice surviving the treatment and exposure period” value is given as “six of ten”. For the same substance, the “body weight after the treatment and exposure period (recovery)” value in test [1] (surviving mice, p<0.05, FIG. 3A/3B) was “increasing weight to near pre-treatment levels”. In test [2], the improved survival rate is given as 50% and the onset of morbidity result is recorded as “delayed onset of morbidity”.
